Source: patent US8481564B2, “Inhibitors of c-fms kinase” (Janssen Pharmaceutica, N.V., priority 2006, dated 2013)

What was measured:
[1] = system: mouse bone-marrow derived macrophages; test: CSF-1-driven mouse bone-marrow derived macrophages assay (BrDU incorporation); assay type: cell-based; conditions: BMDM; CSF-1 stimulated mouse bone-marrow derived macrophages, 30 hrs culture, BrDU incorporation ELISA; read-out: mCSF driven proliferation BMDM (Mouse)
Protocol: CSF-1-Driven Mouse Bone-Marrow Derived Macrophages Assay
Macrophages are derived by culturing mouse bone marrow in alpha-MEM supplemented with 10% FCS (fetal calf serum) and 50 ng/ml recombinant mouse CSF-1 in bacteriologic dishes. On the sixth day, macrophages are detached from dishes, washed, and resuspended to 0.1 million cells/ml in alpha-MEM containing 10% FCS. One hundred ul of cell suspension are distributed per well into 96 well culture plates. Wells are further supplemented with the addition of 50 ul media containing 15 ng/ml CSF-1, 3 uM Indomethacin, and 3× of a dilution series of test compounds. The cells are cultured for 30 hrs at 37° C. and 5% CO2. During the final six hours, cultures are supplemented with an additional 30 ul of media containing a 1:500 dilution of bromodeoxyuridine (BrDU). At the end of the culture period, the media is removed and replaced with […] of fixative solution for 30′@room temperature. The fixative is then dispelled from the plates and the plates allowed to air dry. Incorporation of BrDU into the fixed, dried cells is quantified using a specific ELISA (Cat X1327K) from Exalpha Corporation (Watertown Mass.). Background values are determined from wells without BrDU reagent. IC50 values are calculated based on signal from CSF-1 stimulated cells without compound present.

CSF-1R = CSF-1R (Homo sapiens (Human), UniProt P07333); test: Fluorescence polarization competition immunoassay (inhibition of CSF-1R phosphorylation of tyrosine on synthetic CSF-1R555-568 peptide); assay type: biochemical; conditions: CSF-1R fluorescence polarization assay; 0.7 nM CSF-1R, 1 mM ATP, 308 μM peptide; mean of at least three determinations
Chain of CSF-1R (P07333 20-972): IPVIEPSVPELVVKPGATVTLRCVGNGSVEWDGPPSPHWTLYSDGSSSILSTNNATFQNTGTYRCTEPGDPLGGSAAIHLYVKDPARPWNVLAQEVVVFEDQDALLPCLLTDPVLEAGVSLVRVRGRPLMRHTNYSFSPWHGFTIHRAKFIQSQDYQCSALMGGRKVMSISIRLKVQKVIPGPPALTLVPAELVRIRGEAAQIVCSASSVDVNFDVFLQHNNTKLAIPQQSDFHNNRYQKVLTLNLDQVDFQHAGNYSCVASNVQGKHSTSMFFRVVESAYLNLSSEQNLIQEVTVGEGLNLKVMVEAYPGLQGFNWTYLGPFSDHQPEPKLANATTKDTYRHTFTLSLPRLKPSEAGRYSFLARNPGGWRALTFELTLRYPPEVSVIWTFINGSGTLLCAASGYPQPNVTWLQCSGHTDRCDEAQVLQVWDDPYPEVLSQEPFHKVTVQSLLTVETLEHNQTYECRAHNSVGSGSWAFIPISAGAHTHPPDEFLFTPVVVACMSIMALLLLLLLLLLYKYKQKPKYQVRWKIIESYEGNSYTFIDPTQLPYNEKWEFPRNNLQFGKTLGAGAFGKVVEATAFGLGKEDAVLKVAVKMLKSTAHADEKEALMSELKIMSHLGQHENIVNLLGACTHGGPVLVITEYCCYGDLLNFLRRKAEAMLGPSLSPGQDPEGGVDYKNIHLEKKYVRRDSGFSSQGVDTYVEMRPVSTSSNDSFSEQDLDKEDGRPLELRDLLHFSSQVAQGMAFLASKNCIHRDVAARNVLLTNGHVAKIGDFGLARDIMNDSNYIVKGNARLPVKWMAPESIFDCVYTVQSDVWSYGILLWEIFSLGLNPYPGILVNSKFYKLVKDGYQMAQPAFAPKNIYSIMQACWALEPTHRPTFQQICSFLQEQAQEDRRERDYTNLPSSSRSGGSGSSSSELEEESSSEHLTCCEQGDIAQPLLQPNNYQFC
Protocol: Fluorescence Polarization Competition Immunoassay
The kinase reaction was initiated by adding 1 μL of 10 mM ATP in assay buffer. […] Positive and negative control wells were included on each plate, where 4% DMSO in assay buffer was substituted for the compound; in addition, positive control wells received 1.2 μL of 50 mM EDTA before the start of the reaction.
The plates were covered and incubated at room temperature for 80 min. Reactions were stopped by addition of 1.2 μL of 50 mM EDTA. […] The plates were covered, incubated for 30 min at room temperature, and the fluorescence polarization was read on an Analyst plate reader (Molecular Devices). […] Reported IC50 values are the mean of three of at least three determinations.

| IC50 (CSF-1R) | Compound | IC50 [1] |
| --- | --- | --- |
|  | N#Cc1c[nH]c(C(=O)Nc2ccc(C3CC(=O)NC(=O)C3)cc2C2=CCCCC2)n1 [Example 1, 4-Cyano-1H-imidazole-2-carboxylic acid [2-cyclohex-1-enyl-4-(2,6-dioxo-piperidin-4-yl)-phenyl]-amide] | 10 nM |
|  | CN1CC(c2ccc(NC(=O)c3nc(C#N)c[nH]3)c(C3=CCCCC3)c2)CN(C)S1(=O)=O [Example 11, 4-Cyano-1H-imidazole-2-carboxylic acid [2-cyclohex-1-enyl-4-(2,6-dimethyl-1,1-dioxo-1λ^6-[1,2,6]thiadiazinan-4-yl)-phenyl]-amide] | 2 nM |
|  | CC1(C)CC=C(c2cc(C3CC(=O)NC(=O)C3)ccc2NC(=O)c2nc(C#N)c[nH]2)CC1 [Example 3, 4-Cyano-1H-imidazole-2-carboxylic acid [2-(4,4-dimethyl-cyclohex-1-enyl)-4-(2,6-dioxo-piperidin-4-yl)-phenyl]-amide] | 7 nM |
|  | CN1C(=O)CC(c2ccc(NC(=O)c3nc(C#N)c[nH]3)c(C3=CCCCC3)c2)CC1=O [Example 14, 4-Cyano-1H-imidazole-2-carboxylic acid[2-cyclohex-1-enyl-4-(1-methyl-2,6-dioxo-piperidin-4-yl)-phenyl]-amide] | 4 nM |
| 10 nM | N#Cc1c[nH]c(C(=O)Nc2cc(CO)c(C3CNS(=O)(=O)NC3)cc2C2=CCCCC2)n1 [Example 6, 4-Cyano-1H-imidazole-2-carboxylic acid [2-cyclohex-1-enyl-4-(1,1-dioxo-1λ^6-[1,2,6]thiadiazinan-4-yl)-5-hydroxymethyl-phenyl]-amide] | 60 nM |
| > 300 nM | N#Cc1c[nH]c(C(=O)Nc2ccc(C3COC(=O)OC3)cc2C2=CCCCC2)n1 [Example 15, 4-Cyano-1H-imidazole-2-carboxylic acid[2-cyclohex-1-enyl-4-(2-oxo-[1,3]dioxan-5-yl)-phenyl]-amide] |  |
|  | CN1CC(c2ccc(NC(=O)c3cc(C#N)c[nH]3)c(C3=CCCCCC3)c2)CN(C)C1=O [Example 10, 4-Cyano-1H-pyrrole-2-carboxylic acid [2-cyclohept-1-enyl-4-(1,3-dimethyl-2-oxo-hexahydro-pyrimidin-5-yl)-phenyl]-amide] | 100 nM |
| 2 nM | CS(=O)(=O)N=C1NCC(c2ccc(NC(=O)c3nc(C#N)c[nH]3)c(C3=CCCCC3)c2)CN1 (stereo not drawn) [Example 13, 4-Cyano-1H-imidazole-2-carboxylic acid[2-cyclohex-1-enyl-4(2methanesulfonylimino-hexahydro-pyrimidin-5-yl)-phenyl]-amide] | 100 nM |
|  | N#Cc1c[nH]c(C(=O)Nc2ccc(C3CNS(=O)(=O)NC3)cc2C2=CCCCC2)n1 [Example 5, 4-Cyano-1H-imidazole-2-carboxylic acid [2-cyclohex-1-enyl-4-(1,1-dioxo-1λ^6-[1,2,6]thiadiazinan-4-yl)-phenyl]-amide] | 60 nM |
|  | CN1CC(c2ccc(NC(=O)c3nc(C#N)c[nH]3)c(C3=CCCCCC3)c2)CN(C)C1=O [Example 9, 4-Cyano-1H-imidazole-2-carboxylic acid [2-cyclohept-1-enyl-4-(1,3-dimethyl-2-oxo-hexahydro-pyrimidin-5-yl)-phenyl]-amide] | 5 nM |
| 3 nM | N#CN=C1NCC(c2ccc(NC(=O)c3nc(C#N)c[nH]3)c(C3=CCCCC3)c2)CN1 (stereo not drawn) [Example 12, 4-Cyano-1H-imidazole-2-carboxylic acid[4-(2-cyanoimino-hexahydro-pyrimidin-5-yl)-2-cyclohex-1-enyl-phenyl]-amide] | 40 nM |
|  | CN1CC(c2ccc(NC(=O)c3nc(C#N)c[nH]3)c(C3=CCC(C)(C)CC3)c2)CN(C)C1=O [Example 8, 4-Cyano-1H-imidazole-2-carboxylic acid [2-(4,4-dimethyl-cyclohex-1-enyl)-4-(1,3-dimethyl-2-oxo-hexahydro-pyrimidin-5-yl)-phenyl]-amide] | 3 nM |
